Here are results for 63 molecules from paper PMC7539012, “Hyperphosphorylated tau aggregation and cytotoxicity modulators screen identified prescription drugs linked to Alzheimer's disease and cognitive functions” (Scientific Reports, 2020).

SMILES strings stand for the structures. Counter-ions that a name gives are not always drawn. Like-named read-outs stand apart in the source and are kept apart here.

This assay deals with T1, 1N4R p-tau.
T1 construct: made in house; host or cells: E. coli (PIMAX system)
Briefly: p-tau aggregation modulator screen of 1280-compound library (ThS fluorescence net change over 16 h).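 As to ThS net change: 30 µM compound with 6 µM p-tau over 16 h.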 More on the design: key to PTAI>3SD: *: PTAI>3SD. Format: biochemical.

Where [1] appears, read: p-tau aggregation modulator screen of 1280-compound library, ThS fluorescence net change.
Setting [2] is: p-tau aggregation modulator screen of the compound library, ThS fluorescence net change.
Where [3] appears, read: 1280-compound library screen, […].
Setting [4] is: 1280-compound library screen, ThS fluorescence net change over 16 h.
The mark [5] stands for this setting: library screen, ThS fluorescence net change over 16 h with p-tau.
Where [6] appears, read: p-tau aggregation modulator screen of 1280-compound library, […].

As for `COC(=O)Nc1nc2cc(C(=O)c3ccc(F)cc3)ccc2[nH]1` [Flubendazol], under setting [1], the ThS net change is recorded as 332.

As to `Nc1c2c(nc3ccccc13)CCCC2O.O=C(O)/C=C\C(=O)O` (racemic) [Hydroxytacrine maleate (R,S)], the ThS net change under setting [2] is 423.

Molecule `CC(O)(P(=O)([O-])O)P(=O)([O-])O.[Na+].[Na+]` [Etidronic acid, disodium salt] yielded a ThS net change under setting [3] of 392.

`CCN(CC)CCOCCOC(=O)C1(c2ccccc2)CCCC1` [Carbetapentane citrate]: the ThS net change under setting [4] worked out at 402. Turning to `CN(Cc1cnc2nc(N)nc(N)c2n1)c1ccc(C(=O)N[C@@H](CCC(=O)O)C(=O)O)cc1` [Methotrexate], under setting [5], the ThS net change is 326.

Molecule `C=CC1=C(C(=O)O)N2C(=O)[C@@H](NC(=O)/C(=N\OCC(=O)O)c3csc(N)n3)[C@H]2SC1` [Cefixime] had a ThS net change under setting [4] of 408. `CN(C(=O)CN(CCO)CC(=O)N(C)C(C)(C)Cc1ccccc1)C(C)(C)Cc1ccccc1` [Oxethazaine] had a ThS net change under setting [1] of 329. As to `COc1cc2c(c(OC)c1OC)-c1ccc(OC)c(=O)cc1[C@@H](NC(C)=O)CC2` [Colchicine], under setting [6], the ThS net change is listed as 336. Under setting [3], `Nc1ccc(S(=O)(=O)[N-]c2cnc3ccccc3n2)cc1.[Na+]` [Sulfaquinoxaline sodium salt] registered a ThS net change of 398. As for `COCCc1ccc(OCC(O)CNC(C)C)cc1.COCCc1ccc(OCC(O)CNC(C)C)cc1.O=C(O)C(O)C(O)C(=O)O` (racemic) [Metoprolol-(+,-) (+)-tartrate salt], the ThS net change under setting [4] was found to be 390. With `CC[C@H]1OC(=O)[C@H](C)[C@@H](O[C@H]2C[C@@](C)(OC)[C@@H](O)[C@H](C)O2)[C@H](C)[C@@H](O[C@@H]2O[C@H](C)C[C@H](N(C)C)[C@H]2O)[C@](C)(OC)C[C@@H](C)C(=O)[C@H](C)[C@@H](O)[C@]1(C)O` [Clarithromycin], under setting [2], the ThS net change worked out at 416.

In turn, `CN(C)CCOC1=Cc2ccccc2Sc2ccc(Cl)cc21` [Zotepine] gave a ThS net change under setting [4] of 388. Molecule `COc1c(O[C@@H]2O[C@H](CO)[C@@H](O)[C@H](O)[C@H]2O)cc2c(c1OC)-c1ccc(SC)c(=O)cc1[C@@H](NC(C)=O)CC2` [Thiocolchicoside] showed a ThS net change under setting [6] of 370. `CC[C@@]1(O)C(=O)OCc2c1cc1n(c2=O)Cc2cc3c(CN(C)C)c(O)ccc3nc2-1` [Topotecan] showed a ThS net change under setting [2] of 5499.

`Cc1c(N(C)CS(=O)(=O)[O-])c(=O)n(-c2ccccc2)n1C.[Na+]` [Dipyrone]: the ThS net change under setting [1] is 363.

`Nc1nc2[nH]cc(CCc3ccc(C(=O)N[C@@H](CCC(=O)O)C(=O)O)cc3)c2c(=O)[nH]1` [Pemetrexed disodium] returned a ThS net change of 441. `COc1ccc2c(c1)C(=O)N(CCc1ccc(S(=O)(=O)NC(=O)NC3CCCCC3)cc1)C(=O)C2(C)C` [Gliquidone] came in with a ThS net change under setting [2] of 492. Take `Fc1ccc([C@@H]2CCNC[C@H]2COc2ccc3c(c2)OCO3)cc1` [Paroxetine Hydrochloride]: the ThS net change under setting [1] is 363. `O=C1NCCN1CCN1CCC(c2cn(-c3ccc(F)cc3)c3ccc(Cl)cc23)CC1` [Sertindole]: under setting [2], the ThS net change is on record as 434.

As for `CC(C)(C)NCC(O)c1cc(Cl)c(N)c(Cl)c1` (stereo not shown) [Clenbuterol hydrochloride], under setting [6], the ThS net change is recorded as 349. With `Nc1ccc(C(=O)O)c(O)c1` [4-aminosalicylic acid], the ThS net change amounted to 428. Take `O=C(NCC(O)CO)c1c(I)c(C(=O)NCC(O)CO)c(I)c(N(CCO)C(=O)CO)c1I` (stereo not shown) [Ioversol]: the ThS net change under setting [4] is listed as 409. `CN1CCCC(CC2c3ccccc3Sc3ccccc32)C1` (stereo not shown) [Metixene hydrochloride] yielded a ThS net change under setting [4] of 386. The molecule `[H]/N=C(/N)N/C(=N/[H])NCCc1ccccc1` [Phenformin hydrochloride] displayed a ThS net change under setting [1] of 369. The molecule `C=CC(N)CCC(=O)O` (stereo not shown) [Vigabatrin] returned a ThS net change under setting [1] of 362. On the same count and under the same terms, the same measure for `CNCCCN1c2ccccc2CCc2ccccc21` [Desipramine hydrochloride]: 365. As to `COc1ccc(-c2cc(=S)ss2)cc1` [Anethole-trithione], the “PTAI>3SD” value (flag: p-tau aggregation inhibitor, ThS net change more than 3 SD from mean) is reported as “*”. In addition, the ThS net change under setting [5] is on record as 46. On to `COCCCC/C(=N\OCCN)c1ccc(C(F)(F)F)cc1` [Fluvoxamine maleate], for which the ThS net change turned out to be 420.

The molecule `C[N+]1(C)CCOC(O)(c2ccc(-c3ccc(C4(O)C[N+](C)(C)CCO4)cc3)cc2)C1.[Br-].[Br-]` (stereo not shown) [Hemicholinium bromide] returned a ThS net change under setting [3] of 379.

Molecule `COc1ccc2c(c1)c(CC(=O)OCC(=O)O)c(C)n2C(=O)c1ccc(Cl)cc1` [Acemetacin] registered a ThS net change under setting [1] of 349. Under setting [3], `CCOc1ccccc1O[C@@H](c1ccccc1)[C@H]1CNCCO1.CS(=O)(=O)O` [Reboxetine mesylate] gave a ThS net change of 386. Same read-out and setting: in the case of `C#C[C@]1(O)CC[C@H]2[C@@H]3[C@H](C)CC4=C(CCC(=O)C4)[C@H]3CC[C@@]21C` [Tibolone] it was 381. For the molecule `COc1ccc(NS(=O)(=O)c2ccc(N)cc2)nn1` [Sulfamethoxypyridazine], the ThS net change under setting [4] is recorded as 392.

For the molecule `C#CCN(C)[C@H](C)Cc1ccccc1` [Selegiline hydrochloride], the ThS net change under setting [3] is on record as 388. As for `COc1ccc([C@@H]2Sc3ccccc3N(CCN(C)C)C(=O)[C@@H]2OC(C)=O)cc1` [Diltiazem hydrochloride], the ThS net change amounted to 308. Under setting [2], `CC1NC(=O)NC1=O` (stereo not shown) [Methylhydantoin-5-(L)] showed a ThS net change of 449. Regarding `Cc1c(Nc2ncccc2C(=O)O)cccc1C(F)(F)F` [Flunixin meglumine], the ThS net change under setting [1] came out at 354. As to `CC(=O)O[C@]1(C(C)=O)CC[C@H]2[C@@H]3C=C(C)C4=CC(=O)CC[C@]4(C)[C@H]3CC[C@@]21C` [Megestrol acetate], under setting [1], the ThS net change is reported as 343. For the molecule `CC(C)C(=O)c1c(C(C)C)nn2ccccc12` [Ibudilast], the ThS net change under setting [2] worked out at 444. Same read-out and setting: in the case of `O=C(O)CCc1nc(-c2ccccc2)c(-c2ccccc2)o1` [Oxaprozin] it was 425.

Turning to `CN1CCN(CCCN2c3ccccc3Sc3ccc(S(=O)(=O)N(C)C)cc32)CC1.CS(=O)(=O)O.CS(=O)(=O)O` [Thioproperazine dimesylate], the ThS net change under setting [5] is 314. For `CC(C)(C)NC[C@@H](O)COc1cccc2c1CCCC2=O.Cl` [(+) -Levobunolol hydrochloride], the ThS net change under setting [1] amounted to 350. The molecule `CCN(CC)CCOc1ccc(/C(=C(/Cl)c2ccccc2)c2ccccc2)cc1.O=C(O)CC(O)(CC(=O)O)C(=O)O` [Clomiphene citrate (Z,E)] yielded a ThS net change under setting [3] of 409.

Consider `CCCN(CCC)S(=O)(=O)c1ccc(C(=O)O)cc1` [Probenecid], for which the ThS net change under setting [2] is reported as 416. Under setting [3], `CC(=O)OCC(=O)NCCCOc1cccc(CN2CCCCC2)c1` [Roxatidine Acetate HCl] returned a ThS net change of 411. In turn, `COCCOC(=O)C1=C(C)NC(C)=C(C(=O)OC(C)C)C1c1cccc([N+](=O)[O-])c1` (stereo not shown) [Nimodipine] returned a ThS net change under setting [1] of 343. `Cc1ncc(C[n+]2csc(CCO)c2C)c(N)n1` [Thiamine hydrochloride] gave a ThS net change under setting [4] of 383. The molecule `CN(C)CCC[C@@]1(c2ccc(F)cc2)OCc2cc(C#N)ccc21` [Escitalopram oxalate] came in with a ThS net change under setting [1] of 374. Turning to `CC(Oc1ccccc1)C(=O)N[C@@H]1C(=O)N2[C@@H]1SC(C)(C)[C@@H]2C(=O)[O-].[K+]` (stereo partly shown) [Phenethicillin potassium salt], the ThS net change under setting [3] came out at 387. `O=C1NCC2(CCN(CCc3ccccc3)CC2)O1` [Fenspiride hydrochloride]: under setting [1], the ThS net change was 362. Take `Cn1c(NCCN(CCO)CCCc2ccc([N+](=O)[O-])cc2)cc(=O)n(C)c1=O` [Nifekalant]: the ThS net change under setting [2] was found to be 438.

For `C[N+]1(C)CCC(=C(c2ccccc2)c2ccccc2)CC1` [Diphemanil methylsulfate], the ThS net change under setting [1] worked out at 350. With `COC(=O)CCc1ccc(OCC(O)CNC(C)C)cc1` (stereo not shown) [Esmolol hydrochloride], under setting [4], the ThS net change was found to be 400.

As to `C[C@]12Cc3c[nH]nc3C[C@@H]1CC[C@@H]1[C@@H]2CC[C@@]2(C)[C@H]1CC[C@]2(C)O` [Stanozolol], the ThS net change under setting [3] is 403. `C/C(=C(\CCOP(=O)(O)O)SC(=O)c1ccccc1)N(C=O)Cc1cnc(C)nc1N` [Benfotiamine] showed a ThS net change under setting [1] of 375.

Under setting [1], `NCCCC[C@H](N[C@@H](CCc1ccccc1)C(=O)O)C(=O)N1CCC[C@H]1C(=O)O` [Lisinopril] displayed a ThS net change of 328. `CC(C)(C)NC(=O)[C@@H]1CN(Cc2cccnc2)CCN1C[C@@H](O)C[C@@H](Cc1ccccc1)C(=O)N[C@H]1c2ccccc2C[C@H]1O` [Indinavir sulfate]: the ThS net change is given as 457. `CC(C)(Oc1ccc(Cl)cc1)C(=O)O` [Clofibric acid] yielded a ThS net change under setting [1] of 349. Under setting [4], `C=CCN1CCCC1CNC(=O)c1cc2nn[nH]c2cc1OC.Cl` (stereo not shown) [Alizapride HCl] had a ThS net change of 383. On the same count and under the same terms, the same measure for `NS(=O)(=O)c1cc(Cl)c(Cl)c(S(N)(=O)=O)c1` [Dichlorphenamide]: 404. With `C#C[C@]1(O)CC[C@H]2[C@@H]3CCC4=CC(=O)CCC4=C3C=C[C@@]21CC` [Gestrinone], under setting [3], the ThS net change came to 397. `CCSc1ccc2c(c1)N(CCCN1CCN(C)CC1)c1ccccc1S2.O=C(O)CC(O)C(=O)O.O=C(O)CC(O)C(=O)O` [Thiethylperazine dimalate] yielded a ThS net change under setting [5] of 317. Under setting [1], `CC[C@H]1OC(=O)[C@H](C)[C@@H](O[C@H]2C[C@@](C)(OC)[C@@H](O)[C@H](C)O2)[C@H](C)[C@@H](O[C@@H]2O[C@H](C)C[C@H](N(C)C)[C@H]2O)[C@](C)(O)C[C@@H](C)/C(=N\OCOCCOC)[C@H](C)[C@@H](O)[C@]1(C)O` [Roxithromycin] registered a ThS net change of 366.
